Experimental data as given in patent US9006415B2, “Targeted delivery of nucleic acids” (Massachusetts Institute of Technology, priority 2010, dated 2015).

Assays:
HeLa cells = assay: Inhibition of endocytosis (uptake and GFP knockdown with small molecule inhibitors); type: cell-based, human; details: HeLa cells pre-incubated with inhibitor 1 h
Experimental: HeLa cells grown in 96-well plates at ˜70% confluence were incubated with small molecule inhibitors for 1 h at 37° C., followed by incubation with tetramethylrhodamine-labeled TP-LyP1 (3 μM) or TPNs containing both labeled peptide (3 μM) and GFP siRNA (100 nM) for an additional hour at 37° C. The cells were washed three times with cold PBS and were subsequently either imaged with a CCD camera mounted on a Nikon TE200 inverted epifluorescence microscope (for peptide-only), or trypsinized for flow cytometry analysis by the BD-LSR II system to assess GFP expression (for incubations with nanocomplexes).
To identify the mechanism by which tandem peptides enter cells, these experiments were repeated in the presence of a variety of endocytosis inhibitors [Veldhoen, S., Laufer, S. D., Trampe, A. & Restle, T. Cellular delivery of small interfering RNA by a non-covalently attached cell-penetrating peptide: quantitative analysis of uptake and biological effect. Nucleic Acids Res 34, 6561-6573, (2006)]. […] Thus, tandem peptides are taken up by cells mainly via macropinocytosis and lipid-raft.

p32 receptor = molecular target: T1, p32 receptor (Homo sapiens, UniProt Q07021); assay: Competition of GFP silencing with free LyP-1 peptide; type: cell-based; details: nanocomplexes on HeLa cells
T1 construct: incubated over Hela cells, which express p32 on the cell surface; endogenous in cells; host or cells: HeLa (stably expressing dGFP)
T1 sequence (Q07021 74-282): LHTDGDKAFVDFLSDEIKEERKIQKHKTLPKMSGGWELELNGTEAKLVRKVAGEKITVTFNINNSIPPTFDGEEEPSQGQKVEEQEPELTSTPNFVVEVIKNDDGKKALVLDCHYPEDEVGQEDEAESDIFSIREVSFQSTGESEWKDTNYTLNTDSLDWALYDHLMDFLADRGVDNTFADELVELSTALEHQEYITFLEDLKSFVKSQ
Experimental: For the initial screen, HeLa cells stably expressing destabilized GFP were cultured in 96-well plates to ˜70-80% confluence. siRNA (0-100 nM) was incubated with 20-fold molar excess of tetramethylrhodamine-labelled tandem peptides in PBS for 10-15 min at room temperature, then incubated over cells in DMEM for 4 h at 37° C., after which the medium was replaced. The complexes were then added to HeLa cell cultures and incubated for 4 h at 37° C., after which the medium was replaced with 100 μL of fresh medium with 10% serum. […] For competition experiments with free LyP-1 peptide, cells were pre-incubated with unlabeled LyP-1 peptide or ARAL control peptide at specified concentrations for 1 h at 37° C. before treatment with peptide/siRNA complexes.

tumor parenchyma = assay: Tumor penetration with iRGD in place of Lyp-1; type: in vivo; details: data not shown

Compound	GFP knockdown in presence of inhibitor (HeLa cells)	cell binding of tandem peptide in presence of inhibitor (HeLa cells)	effect of control peptide on GFP silencing (p32 receptor)	tumor penetration (tumor parenchyma)
CCCCCCCCCC(=O)NC(CN1CCOCC1)C(O)c1ccccc1 (stereo not drawn) [PDMP]	significantly decreased	significantly decreased	–	–
OC[C@H]1O[C@@H]2O[C@H]3[C@H](O)[C@@H](O)[C@@H](O[C@H]4[C@H](O)[C@@H](O)[C@@H](O[C@H]5[C@H](O)[C@@H](O)[C@@H](O[C@H]6[C@H](O)[C@@H](O)[C@@H](O[C@H]7[C@H](O)[C@@H](O)[C@@H](O[C@H]8[C@H](O)[C@@H](O)[C@@H](O[C@H]1[C@H](O)[C@H]2O)O[C@@H]8CO)O[C@@H]7CO)O[C@@H]6CO)O[C@@H]5CO)O[C@@H]4CO)O[C@@H]3CO [β-cyclodextrin]	significantly decreased	significantly decreased	–	–
ARALPSQRSR [control peptide]	–	–	no effect	–
CRGDKGPDC [iRGD]	–	–	–	penetrate tumor parenchyma in a to time-dependent manner
OCC1OC(O)CC(O)C1O (stereo not drawn) [Deoxyglucose]	inhibited GFP knockdown	–	–	–
N=C(N)NC(=O)c1nc(Cl)c(N)nc1N [amiloride]	significantly decreased	significantly decreased	–	–
